How the values were obtained:
Solubility observations = format: physicochemical
[1] = Stability to isolation from radio-HPLC effluent, evaporation and dissolution in PBS (radio-HPLC reinjection); format: physicochemical; details: evaporation of solvents, dissolution in PBS
Method: Similarly, radiohalogenation of para-tri-n-butylstannylbenzamidyl-dPEG4-carboxylic acid methyl ester 9 (Figure 3) using ChT as oxidant provided quantitative yields of [^125I]10 and [^211At]12 by radio-HPLC analyses (Figure 4A,B). The radiohalogenation reaction products were used without purification in the oxidation reactions to make the corresponding iodoxyaryl or astatoxyaryl compounds. Oxidation of [^125I]5 (Figure 2) provided [^125I]6 in 71% RCY. Oxidation of [^125I]10 (Figure 3) at 70 °C for 20 min provided a complex mixture of products, but isolation of the major peak (~6–8 min) provided [^125I]11 in 60% RCY (Figure 4C,E). […]
Two biodistribution studies were conducted. One biodistribution study evaluated the tissue distribution in athymic mice of isolated products from the reactions to produce [^125I]11 and [^211At]13. […]
HPLC analyses of non-radioactive compounds were performed using a system composed of a Hewlett-Packard quaternary 1050 gradient pump, a variable wavelength UW detector (254 nm) and an evaporative light scattering detector (ELSD 2000, Alltech, Deerfield, IL, USA). Radio-HPLC analysis of product mixtures from radiohalogenation reactions were analyzed using a system composed of two Beckman model 110 B pumps, a Beckman 420 controller, a Beckman model 153 UV detector (254 nm), and a Beckman model 170 radiation detector. […]

[2] = Biodistribution of coinjected [125I]11 and [211At]13 in athymic mice; format: in vivo; details: tail vein coinjection, 3 µCi each, n = 5, mean ± SD; for Concentration of radioactivity in neck: neck (thyroid)

SMILES: COC(=O)c1ccc(I(=O)=O)cc1 [Compound 6, Para-Iodoxybenzoic Acid Methyl Ester]
- Solubility in DMSO (Solubility observations; DMSO at room temperature): only partially soluble
- Solubility (Solubility observations; all solvents tried): very insoluble in all solvents tried
- melting point: 243 to 245 °C

SMILES: COC(=O)CCOCCOCCOCCOCCNC(=O)c1ccc([125I](=O)=O)cc1 [[125I]11]
- Stability under the conditions of isolation by radio-HPLC [1]: did not change during that process
- Concentration of radioactivity in blood ([2]; 1 h p.i.): 0.22 ± 0.14 %ID/g
- Concentration of radioactivity in intestine ([2]; 1 h p.i.): 9.59 ± 8.73 %ID/g
- Concentration of radioactivity in kidney ([2]; 1 h p.i.): 0.84 ± 0.23 %ID/g
- Concentration of radioactivity in liver ([2]; 1 h p.i.): 1.73 ± 0.96 %ID/g
- Concentration of radioactivity in lung ([2]; 1 h p.i.): 0.32 ± 0.10 %ID/g
- Concentration of radioactivity in muscle ([2]; 1 h p.i.): 0.12 ± 0.05 %ID/g
- Concentration of radioactivity in spleen ([2]; 1 h p.i.): 0.35 ± 0.28 %ID/g
- Concentration of radioactivity in stomach ([2]; 1 h p.i.): 3.53 ± 1.09 %ID/g
- Concentration of radioactivity in blood ([2]; 4 h p.i.): 0.23 ± 0.18 %ID/g
- Concentration of radioactivity in intestine ([2]; 4 h p.i.): 3.39 ± 1.15 %ID/g
- Concentration of radioactivity in kidney ([2]; 4 h p.i.): 0.40 ± 0.15 %ID/g
- Concentration of radioactivity in liver ([2]; 4 h p.i.): 0.64 ± 0.47 %ID/g
- Concentration of radioactivity in lung ([2]; 4 h p.i.): 0.14 ± 0.07 %ID/g
- Concentration of radioactivity in muscle ([2]; 4 h p.i.): 0.03 ± 0.01 %ID/g
- Concentration of radioactivity in spleen ([2]; 4 h p.i.): 0.08 ± 0.04 %ID/g
- Concentration of radioactivity in stomach ([2]; 4 h p.i.): 0.65 ± 0.16 %ID/g
- Concentration of radioactivity in blood ([2]; 24 h p.i.): 0.01 ± 0.00 %ID/g
- Concentration of radioactivity in intestine ([2]; 24 h p.i.): 0.02 ± 0.01 %ID/g
- Concentration of radioactivity in kidney ([2]; 24 h p.i.): 0.03 ± 0.01 %ID/g
- Concentration of radioactivity in liver ([2]; 24 h p.i.): 0.01 ± 0.00 %ID/g
- Concentration of radioactivity in lung ([2]; 24 h p.i.): 0.54 ± 0.85 %ID/g
- Concentration of radioactivity in spleen ([2]; 24 h p.i.): 0.01 ± 0.00 %ID/g
- Concentration of radioactivity in stomach ([2]; 24 h p.i.): 0.02 ± 0.01 %ID/g
- Concentration of radioactivity in neck ([2]; 1 h p.i.): 0.49 ± 0.09 %ID/g
- Concentration of radioactivity in neck ([2]; 4 h p.i.): 0.35 ± 0.14 %ID/g
- Concentration of radioactivity in neck ([2]; 24 h p.i.): 0.02 ± 0.01 %ID/g

SMILES: COC(=O)CCOCCOCCOCCOCCNC(=O)c1ccc([211At](=O)=O)cc1 [[211At]13, p-[^211At]astatoxylbenzoyl-dPEG-methyl ester]
- Stability under the conditions of isolation by radio-HPLC [1]: too unstable

From article PMC9506049, “Oxidation of p-[^125I]Iodobenzoic Acid and p-[^211At]Astatobenzoic Acid Derivatives and Evaluation In Vivo” (International Journal of Molecular Sciences, 2022)
